Results on 15 molecules are retold here after patent US20220313700A1, “METHODS FOR TREATING MAP3K8 POSITIVE CANCERS” (CELL RESPONSE, INC., priority 2019, published 2022).

In one assay the test system is H358 NSCLC cell line. Nature of the assay: Alamar blue proliferation assay, H358. The assay is classed as cell-based. The note with it: H358, 72 hours, vs no drug. As for the experimental part:
(§1) The experiments have been performed in the following way. Three thousand cells in suspension in the medium normally used to grow these particular cells have been placed in an individual well within a 96 well tissue culture plate. Following cell attachment, the drugs have added to the wells to achieve the final indicated concentration. Subsequently, the cells were incubated for 72 hours in a standard tissue culture incubator at 37 degrees Celsius in an atmosphere containing 5% CO2. Following 66 hours, Alamar blue was added to the cells. Six hours later (72 hours from the addition of drug) the 96 well plate was placed in a fluorescence plate reader to measure for Alamar blue fluorescence (excitation wavelength of 540-570 nm (peak excitation is 560 nm)). Fluorescence emission was read at 580-610 nm (peak emission is 590 nm). This enabled the determination of the number of live cells present in each well. Wells containing each drug were compared to control wells where no drug was added. In each experiment, each condition was performed in multiple technical repeats of between four and eight times, by using between four and eight wells that were treated identically Each and every experiment was repeated at least three times on different days. In the data shown here, a representative example of each experiment is shown.
On the technique in general: Resazurin is reduced to fluorescent resorufin, in cell work by metabolically active cells.

In the next assay the test system is H23 NSCLC cell line. In words: Alamar blue proliferation assay, H23. The assay is classed as cell-based. The note with it: H23, 72 hours, vs no drug. As for the experimental part:
as §1

The subject of a further assay is 11-18 NSCLC cell line. In words: Alamar blue proliferation assay, 11-18. The assay is classed as cell-based. The settings on record: 11-18, 72 hours, FIG. 14, FIG. 17. As for the experimental part:
as §1

A further assay relates to HCT15 CRC cell line. Nature of the assay: Alamar blue proliferation assay, HCT15. The assay is classed as cell-based. The note with it: HCT15, 72 hours; for inhibitory effect on proliferation (in words): FIG. 7, FIG. 9, FIG. 19, FIG. 20; for inhibition of proliferation: vs no drug, FIG. 8, FIG. 9. As for the experimental part:
as §1, with “Following cell attachment, the drugs have added to the wells to achieve the final indicated concentration.” left out, “days.” for “days. In the data shown here, a representative example of each experiment is shown.”

A further assay has as its system A549 NSCLC cell line. In words: Alamar blue proliferation assay, A549. The assay is classed as cell-based. The settings on record: A549, 72 hours. As for the experimental part: as §1
A further assay has as its system DLD1 CRC cell line. Nature of the assay: Alamar blue proliferation assay, DLD1. The assay is classed as cell-based. The settings on record: DLD1, 72 hours; for inhibitory effect on proliferation (in words): FIG. 7, FIG. 9, FIG. 20. As for the experimental part: as §1, with “Following cell attachment, the drugs have added to the wells to achieve the final indicated concentration.” left out, “days.” for “days. In the data shown here, a representative example of each experiment is shown.”

Assay [1] has as its system LOVO colorectal cell line. Nature of the assay: Alamar blue proliferation assay, LOVO. The assay is classed as cell-based. The settings on record: 72 hours, FIG. 7, FIG. 10. How it is done:
as §1, with “Following cell attachment, the drugs have added to the wells to achieve the final indicated concentration.” left out, “days.” for “days. In the data shown here, a representative example of each experiment is shown.”

In the next assay the test system is H1975 NSCLC cell line. In words: Alamar blue proliferation assay, H1975. The assay is classed as cell-based. The settings on record: H1975, 72 hours, vs no drug, FIG. 14, 16, 17. As for the experimental part:
as §1

Assay [2] relates to IKKβ, JNK1α, p38, EGFR, CK1α, CDK2, JAK3, MST4, GSK3β. The settings on record: cited from earlier work.
For another assay, the target named is COT (Homo sapiens, UniProt P41279). The settings on record: cited from earlier work.
The subject of a further assay is ERK phosphorylation. The note with it: cited from earlier work.
In assay [3] the test system is four other related kinases. The note with it: cited from earlier work.
In another assay the test system is intact blood cells. The note with it: cited from earlier work.
A further assay relates to CRC cell line HT29. Nature of the assay: Alamar blue proliferation assay, HT29. The assay is classed as cell-based. The note with it: HT29, 72 hours, monotherapy, FIG. 13. How it is done:
as §1

The test system of a further assay is NSCLC H1975 cell line. In words: siRNA knockdown proliferation assay, H1975. The assay is classed as cell-based. The settings on record: H1975, 200 nM, FIG. 21B. How it is done:
as §1, with “Following cell attachment, the drugs have added to the wells to achieve the final indicated concentration.” left out, “days.” for “days. In the data shown here, a representative example of each experiment is shown.”

Assay [4] concerns NSCLC patients with EGFR mutations. The note with it: cited from earlier work.
The test system of assay [5] is HPAFII pancreatic cancer cell line. Nature of the assay: Alamar blue proliferation assay, HPAFII. The assay is classed as cell-based. The settings on record: 72 hours, vs no drug. How it is done: as §1
Assay [6] relates to BxPC3 pancreatic cancer cell line. Nature of the assay: Alamar blue proliferation assay, BxPC3. The assay is classed as cell-based. The note with it: BxPC3, 72 hours, vs no drug. As for the experimental part: as §1
The subject of assay [7] is metastatic ROS1 positive non-small cell lung cancer (NSCLC) patients. The settings on record: cited from earlier work.
The subject of another assay is STE1 NSCLC cell line. Nature of the assay: Alamar blue proliferation assay, STE1. The assay is classed as cell-based. The settings on record: STE1, 72 hours, FIG. 18. As for the experimental part: as §1

Molecules are shown by their SMILES. Read-outs that look alike come from different tables or passages of the source.

COT, sequence (P41279 whole entry): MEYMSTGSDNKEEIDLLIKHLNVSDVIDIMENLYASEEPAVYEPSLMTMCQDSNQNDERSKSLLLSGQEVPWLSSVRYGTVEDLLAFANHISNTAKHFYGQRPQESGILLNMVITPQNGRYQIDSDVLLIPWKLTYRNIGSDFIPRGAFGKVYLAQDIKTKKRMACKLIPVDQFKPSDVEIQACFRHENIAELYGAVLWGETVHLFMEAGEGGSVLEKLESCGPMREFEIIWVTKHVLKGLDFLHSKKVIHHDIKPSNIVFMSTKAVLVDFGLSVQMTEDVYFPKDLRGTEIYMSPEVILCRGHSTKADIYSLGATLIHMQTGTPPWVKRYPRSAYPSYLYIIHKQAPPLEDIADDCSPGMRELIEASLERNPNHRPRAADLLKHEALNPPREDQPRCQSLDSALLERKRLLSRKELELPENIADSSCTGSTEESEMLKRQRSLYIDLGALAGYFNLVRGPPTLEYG

For `C=CC(=O)N1CCN(c2nc(=O)n(-c3c(C)ccnc3C(C)C)c3nc(-c4c(O)cccc4F)c(F)cc23)[C@@H](C)C1` [AMG510, 6-fluoro-7-(2-fluoro-6-hydroxyphenyl)-1-[4-methyl-2-(propan-2-yl)pyridin-3-yl]-4-[(2S)-2-methyl-4-(prop-2-enoyl)piperazin-1-yl]-1H,2H-pyrido[2,3-d]pyrimidin-2-one], the inhibition of proliferation in the assay with H358 NSCLC cell line is listed as 30%; in the assay on H23 NSCLC cell line it was 50%.

Regarding `CCN1CCC(n2cc(CNc3cc(Cl)c4ncc(C#N)c(Nc5ccc(F)c(Cl)c5)c4c3)nn2)CC1` [COT inhibitor, 3-Quinolinecarbonitrile, 8-chloro-4-[(3-chloro-4-fluorophenyl)amino]-6-[[[1-(1-ethyl-4-piperidinyl)-1H-1,2,3-triazol-4-yl]methyl]amino]-3-quinolinecarbonitrile], the “inhibitory effect on proliferation (in words)” value in the assay with 11-18 NSCLC cell line is “higher level of inhibition”; with HCT15 CRC cell line, “variable, but significant, inhibitory effect”; in the assay on A549 NSCLC cell line (FIG. 5, FIG. 6), “no effect”; in the assay on DLD1 CRC cell line, “variable, but significant, inhibitory effect”; in [1], “variable, but significant, inhibitory effect”. Moreover, the inhibition of proliferation is reported as 30% in the assay on HCT15 CRC cell line, “about 30%” in the assay with H358 NSCLC cell line, “about 30%” with H23 NSCLC cell line and 20% in the assay with H1975 NSCLC cell line.

The term IC50 denotes the midpoint of a concentration-inhibition curve. On to `c1ccc2[nH]c(-c3n[nH]c4ccccc34)nc2c1` [FIG. 2A without methyl group], for which, in assay [2], the “kinase selectivity against CDK2, JAK3, MST4, GSK3β” value is recorded as “less selectivity” and the “kinase selectivity against IKKβ, JNK1α, p38, EGFR, CK1α” value was “good kinase selectivity”. The IC50 on COT (Hu et al. 2011, indazoles with benzimidazole ring, read-out: COT (TPL2) IC50) is 109 nM.

Take `Cc1c(CNCCO)cncc1-c1ccc2[nH]nc(-c3nc4ccccc4[nH]3)c2c1` [FIG. 2B]: in the assay with ERK phosphorylation, the “inhibition of ERK phosphorylation” value is recorded as “inhibits ERK phosphorylation”.

With `NC(=O)c1cc2c(-c3cccc(-c4ccccc4)c3)cnc(N)c2s1` [FIG. 3B], the “inhibition of four other related kinases relative to COT” value in assay [3] was “at least ten-fold less effective”. Further, the “activity when added to intact blood cells” value with intact blood cells is recorded as “active”. The IC50 at COT (thieno[2,3-c]pyridines, George et al. 2008, Cusack et al. 2009, read-out: COT IC50) is 170 nM.

With `CN(C)C1CCN(C(=O)c2ccc(NC(=O)Nc3ccc(-c4nc(N5CCOCC5)nc(N5CCOCC5)n4)cc3)cc2)CC1` [Gedatolisib], the “inhibitory effect on proliferation (in words)” value in the assay on HCT15 CRC cell line is “little to no inhibition”; in the assay on DLD1 CRC cell line, “little to no inhibition”; in the assay with CRC cell line HT29 it was “significant inhibitory effect”.

Regarding `C=CC(=O)Nc1cc(Nc2nccc(-c3cn(C)c4ccccc34)n2)c(OC)cc1N(C)CCN(C)C` [Osimertinib], the “reduction of relative cell number” value with NSCLC H1975 cell line is about 50%. For the same molecule, the “progression-free survival, average” value in [4] (osimertinib, or erlotinib/gefitinib/afatinib followed by osimertinib) is 18 months. The patients who respond entry in [4] (patients relapsed after first or second line EGFR inhibitors) is “Fifty percent”.

In the case of `CC(C)Nc1cc(-c2c[nH]c(C(=O)N[C@H](CO)c3cccc(Cl)c3)c2)c(Cl)cn1` [Ulixertinib], the inhibition of proliferation in the assay on HCT15 CRC cell line is reported as 20%; in assay [5] it was 15%; in the assay on A549 NSCLC cell line (vs no drug, FIG. 6) it was 10%; in [6], 32%; with DLD1 CRC cell line (vs no drug, FIG. 8, FIG. 9), “approximately 20%”.

For the molecule `CN(C)C/C=C/C(=O)Nc1cc2c(Nc3ccc(F)c(Cl)c3)ncnc2cc1O[C@H]1CCOC1` [afatinib], in the assay on H1975 NSCLC cell line, the inhibition of proliferation came to 35%.

With `CCc1cc2c(cc1N1CCC(N3CCOCC3)CC1)C(C)(C)c1[nH]c3cc(C#N)ccc3c1C2=O` [alectinib], in [7] (in vivo), the “clinical benefit in ROS1 positive patients” value was “do not possess clinical benefit”.

With `C[C@@H](Oc1cc(-c2cnn(C3CCNCC3)c2)cnc1N)c1c(Cl)ccc(F)c1Cl` [crizotinib], the “patients in whom treatment was initially effective” value in assay [7] (clinical trials) is reported as 70-80%.

As to `CN1CCN(c2ccc(C(=O)Nc3n[nH]c4ccc(Cc5cc(F)cc(F)c5)cc34)c(NC3CCOCC3)c2)CC1` [entrectinib], in assay [7] (in vivo), the duration of response is listed as 28.6 months and the “objective response rate (ORR)” value is on record as 78%.

For the molecule `COc1cc2c(Oc3ccc(NC(=O)C4(C(=O)Nc5ccc(F)cc5)CC4)cc3F)ccnc2cc1OCCCN1CCOCC1` [foretinib], the “clinical benefit in ROS1 positive patients” value in assay [7] (in vivo) was “do not possess clinical benefit”.

For the molecule `C[C@H]1Oc2cc(cnc2N)-c2c(nn(C)c2C#N)CN(C)C(=O)c2ccc(F)cc21` [loraltinib], the inhibition of proliferation in the assay on STE1 NSCLC cell line is 81%.

`COc1cc2c(Nc3ccc(Br)cc3F)ncnc2cc1OCC1CCN(C)CC1` [vandetanib] displayed an inhibition of proliferation with H1975 NSCLC cell line of 20%.
